Target: T1, Gonadotropin-releasing hormone receptor (Homo sapiens, UniProt P30968)
T1 sequence (P30968 whole entry): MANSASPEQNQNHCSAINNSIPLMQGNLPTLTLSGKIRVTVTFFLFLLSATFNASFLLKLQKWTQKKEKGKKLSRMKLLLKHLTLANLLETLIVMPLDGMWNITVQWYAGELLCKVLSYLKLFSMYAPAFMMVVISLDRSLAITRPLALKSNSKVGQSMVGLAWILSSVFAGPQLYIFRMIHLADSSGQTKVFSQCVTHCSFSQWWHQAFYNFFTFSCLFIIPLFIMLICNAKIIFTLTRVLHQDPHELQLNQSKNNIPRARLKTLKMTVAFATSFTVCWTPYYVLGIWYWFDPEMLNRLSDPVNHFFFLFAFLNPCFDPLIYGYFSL
Assay: Binding evaluated in cloned human Gonadotropin-releasing hormone receptor by displacement of [125 I-Tyr, DLeu, NMeLeu, Pro-NEt]GnRH agonist
Settings: not given; call rule not given here

Row | SMILES | Ki
1 | COc1ccc(-c2nc3n(Cc4ccccc4F)c(C)c(-c4ccc5c(c4)OCO5)c(=O)n3c2CN(C)C2CCN(C)CC2)cc1 | Not Active

Same assay, conditions: read-out: Ki

Row | SMILES | Ki
2 | COc1ccc(-c2nc3n(Cc4ccccc4F)c(C)c(-c4cccc(C(F)(F)F)c4)c(=O)n3c2CN(C)CCc2ccccn2)cc1 | 140 nM
3 | COc1ccc(-c2nc3n(Cc4ccccc4F)c(C)c(-c4ccc5c(c4)OCO5)c(=O)n3c2CN(C)Cc2ccccc2)cc1 | 47 nM
4 | COc1ccc(-c2nc3n(Cc4ccccc4F)c(C)c(-c4cccc(F)c4)c(=O)n3c2CN(C)CCc2ccccn2)cc1 | 79 nM
5 | COc1ccc(-c2nc3n(Cc4ccccc4F)c(C)c(-c4cc(OC)c(OC)c(OC)c4)c(=O)n3c2CN(C)CCc2ccccn2)cc1 | 370 nM
6 | COc1ccc(-c2nc3n(Cc4ccccc4F)c(C)c(-c4ccc5c(c4)OCO5)c(=O)n3c2CN2CCCN(C)CC2)cc1 | 9500 nM
7 | COc1ccc(-c2nc3n(Cc4ccccc4F)c(C)c(-c4ccc(OC)c(OC)c4)c(=O)n3c2CN(C)CCc2ccccn2)cc1 | 110 nM
8 | COc1ccc(-c2nc3n(Cc4ccccc4F)c(C)c(-c4ccc5c(c4)OCO5)c(=O)n3c2CN(C)CCc2ccccc2F)cc1 | 67 nM
9 | COc1ccc(-c2nc3n(Cc4ccccc4F)c(C)c(-c4cccc(S)c4)c(=O)n3c2CN(C)CCc2ccccn2)cc1 | 56 nM
10 | COc1ccc(-c2nc3n(Cc4ccccc4F)c(C)c(-c4ccc5c(c4)OCO5)c(=O)n3c2CN(C)CCc2ccncc2)cc1 | 1400 nM
11 | COc1ccc(-c2nc3n(Cc4ccccc4F)c(C)c(-c4ccccc4OC)c(=O)n3c2CN(C)CCc2ccccn2)cc1 | 65 nM
12 | COc1ccc(-c2nc3n(Cc4ccccc4F)c(C)c(-c4ccc5c(c4)OCO5)c(=O)n3c2CN2CCOCC2)cc1 | 28000 nM
13 | CCCCN(C)Cc1c(-c2ccc(OC)cc2)nc2n(Cc3ccccc3F)c(C)c(-c3ccc4c(c3)OCO4)c(=O)n12 | 220 nM
14 | COc1ccc(-c2nc3n(Cc4ccccc4F)c(C)c(-c4ccc5c(c4)OCO5)c(=O)n3c2CN(C)CCc2ccccc2)cc1 | 110 nM
15 | COc1ccc(-c2nc3n(Cc4ccccc4F)c(C)c(-c4ccc(OC)cc4)c(=O)n3c2CN(C)CCc2ccccn2)cc1 | 18 nM
16 | COc1ccc(-c2nc3n(Cc4ccccc4F)c(C)c(-c4cc(Cl)cc(Cl)c4)c(=O)n3c2CN(C)CCc2ccccn2)cc1 | 100 nM
17 | CCN(CC)CCN(C)Cc1c(-c2ccc(OC)cc2)nc2n(Cc3ccccc3F)c(C)c(-c3ccc4c(c3)OCO4)c(=O)n12 | 130 nM
18 | COc1ccc(-c2nc3n(Cc4ccccc4F)c(C)c(-c4cccc(OC)c4)c(=O)n3c2CN(C)CCc2ccccn2)cc1 | 4.6 nM
19 | COc1ccc(-c2nc3n(Cc4ccccc4F)c(C)c(-c4ccc5c(c4)OCO5)c(=O)n3c2CN(C)CCc2ccccn2)cc1 | 11 nM
20 | COCCN(C)Cc1c(-c2ccc(OC)cc2)nc2n(Cc3ccccc3F)c(C)c(-c3ccc4c(c3)OCO4)c(=O)n12 | 150 nM
21 | CCC(CC)OC(=O)c1cn(Cc2ccccc2F)c2nc(-c3ccc(OC)cc3)c(CN(C)CCc3ccccn3)n2c1=O | 230 nM
22 | COc1ccc(-c2nc3n(Cc4ccccc4F)c(C)c(Br)c(=O)n3c2CN(C)CCc2ccccn2)cc1 | 2500 nM

System: not listed separately
Assay: Half-life in rat plasma was determined
Format: ADME, organism-based
Settings: not given

Row | SMILES | half-life
23 | CCC(CC)OC(=O)c1cn(Cc2ccccc2F)c2cc(-c3ccc(NC(C)=O)cc3)c(CN(C)CCc3ccccn3)n2c1=O | 28 min

Reference: ChEMBL document CHEMBL1136027, “Design, synthesis and structure-activity relationships of novel imidazolo[1,2-a]pyrimid-5-ones as potent GnRH receptor antagonists” (Bioorg Med Chem Lett, 2002)
